pIC50: −log10 of the molar value.

These results are taken from patent publication US20090281119A1, “ACID ADDITION SALTS OF N-ETHYI-N'-[2-METHOXY-4-(5-METHYI-4-PRYIMIDIN-2-YL)PHENYL]UREA AND USES THEREOF” (Cytopia Research Pty Ltd., priority 2005, published 2009).

The nature of data set [1]: hygroscopicity of the salts. Format: physicochemical. As to conditions: crystal form / solid salt. The text has this:
(§1) Acid addition salts of the first aspect are well-suited to pharmaceutical formulation as either solution or solid dosage forms. […] It has been shown that these particular salts are also non-hygroscopic and this remains unchanged when stored in a humid environment. The lower hygroscopicity is a further advantage for processing and storing such acid addition salts.

A short description of the next data set: physchem. To be noted: 24 °C; water at 24±3° C. Format: physicochemical.
Description: as §1

In another data set the test system is in vivo tumour models. Put plainly: vascular targeting activity in in vivo tumour models.
The test system of a further data set is tubulin. Put plainly: inhibition of tubulin polymerisation. Format: biochemical. To be noted: read-out: inhibits tubulin polymerisation, IC50. The source says:
One pharmacologically important mechanism of inhibiting cellular proliferation is by means of binding tubulin. Tubulin is an asymmetric dimer composed of alpha and beta subunits, that polymerizes to form structural components of the cytoskeleton called microtubules. Microtubules must be highly dynamic in order to carry out many of their functions. At certain stages of the cell cycle, or in particular cell types or organelles, stable microtubules are required, such as for transport within axons or for ciliary and flagellar movement. Micro-tubules assemble during the G2 phase of the cell cycle, and participate in the formation of the mitotic spindle which facilitates the segregation of sister chromatids during the process of cell division. The essential role of microtubules in cell division and the ability of drugs that interact with tubulin to interfere with the cell cycle have made tubulin a successful target for applications that include anti-cancer drugs, fungicides, and herbicides.
The compound of formula I, and by analogy its acid addition salts, inhibits tubulin polymerisation with an IC50 of 3 μM. […] The inhibition of tubulin polymerisation makes a compound of formula I suitable for the treatment of cancer, viral and bacterial infections, vascular restenosis, inflammatory diseases, autoimmune diseases, and psoriasis.

Regarding `CCC[C@H](Nc1nc(-c2ccc(NC(=O)NCC)c(OC)c2)ncc1C)c1cccnc1.O=C(O)C(O)C(O)C(=O)O` [tartrate salt, N-ethyl-N′-[2-methoxy-4-(5-methyl-4-{[(1S)-1-pyridin-3-ylbutyl]amino}pyrimidin-2-yl)phenyl]urea tartrate salt], in data set [1], the hygroscopicity result was “not hygroscopic”. Besides, in the data set “physchem”, the solubility – broadly, the concentration that dissolves in the medium under given conditions – is greater than 2100 µg/mL.
For `CCC[C@H](Nc1nc(-c2ccc(NC(=O)NCC)c(OC)c2)ncc1C)c1cccnc1` [compound of formula I, N-ethyl-N′-[2-methoxy-4-(5-methyl-4-{[(1S)-1-pyridin-3-ylbutyl]amino}pyrimidin-2-yl)phenyl]urea], in the data set on in vivo tumour models, the vascular targeting activity entry is recorded as “displays vascular targeting activity”. Further, the pIC50 (usually the negative decadic logarithm of the IC50, by convention in mol/L) in the data set with tubulin was 5.52.
Consider `CCC[C@H](Nc1nc(-c2ccc(NC(=O)NCC)c(OC)c2)ncc1C)c1cccnc1.O=C(O)CC(O)(CC(=O)O)C(=O)O` [citrate salt, N-ethyl-N′-[2-methoxy-4-(5-methyl-4-{[(1S)-1-pyridin-3-ylbutyl]amino}pyrimidin-2-yl)phenyl]urea citrate salt], for which, in data set [1], the hygroscopicity entry was “not hygroscopic”. For the same compound, the solubility in “physchem” was greater than 2100 µg/mL.
On to `CCC[C@H](Nc1nc(-c2ccc(NC(=O)NCC)c(OC)c2)ncc1C)c1cccnc1.CS(=O)(=O)O.CS(=O)(=O)O` [di-methanesulfonate salt, N-ethyl-N′-[2-methoxy-4-(5-methyl-4-{[(1S)-1-pyridin-3-ylbutyl]amino}pyrimidin-2-yl)phenyl]urea di-methanesulfonate salt], for which the hygroscopicity result in data set [1] is listed as “not hygroscopic”. The solubility in “physchem” was greater than 2100 µg/mL.
Turning to `CCC[C@H](Nc1nc(-c2ccc(NC(=O)NCC)c(OC)c2)ncc1C)c1cccnc1.O=C(O)C(=O)O` [mono-oxalate salt, N-ethyl-N′-[2-methoxy-4-(5-methyl-4-{[(1S)-1-pyridin-3-ylbutyl]amino}pyrimidin-2-yl)phenyl]urea mono-oxalate salt], in data set [1], the hygroscopicity result is “not hygroscopic”. Besides, the solubility in the data set “physchem” is greater than 2100 µg/mL.
As for `CCC[C@H](Nc1nc(-c2ccc(NC(=O)NCC)c(OC)c2)ncc1C)c1cccnc1.Cl.Cl` [dihydrochloride salt, N-ethyl-N′-[2-methoxy-4-(5-methyl-4-{[(1S)-1-pyridin-3-ylbutyl]amino}pyrimidin-2-yl)phenyl]urea dihydrochloride salt], the hygroscopicity entry in data set [1] is “not hygroscopic”. This compound also returned a solubility in the data set “physchem” greater than 2100 µg/mL.
